Source: patent US8512694B2, “Method of producing rough strains of bacteria and uses thereof” (priority 2005, dated 2013)
Entries after “also recorded” stand apart in the source; their conditions may differ.

Test system: Mycobacterium obuense type strain ATCC 27023
Assay: Growth of Mycobacterium obuense on Middlebrook 7H11 medium with different Dapsone concentrations
Procedure: Mycobacterium obuense type strain ATCC 27023 was grown Middlebrook 7H11 medium comprising different concentrations of Dapsone™.

For `Nc1ccc(S(=O)(=O)c2ccc(N)cc2)cc1` [Dapsone ™, 4,4′-Diaminodiphenyl sulfone], the Observed growth (Experiment 2 part a, 5 μg Dapsone/ml Middlebrook 7H11 medium) was 3 smooth colonies, the Observed growth (Experiment 2 part a, 10 μg Dapsone/ml Middlebrook 7H11 medium) was “no growth” and the Observed growth (Experiment 2 part a, 20 μg Dapsone/ml Middlebrook 7H11 medium) was “no growth”. The Observed growth (Experiment 2 part a, 40 μg Dapsone/ml Middlebrook 7H11 medium) was “no growth”, the Observed growth (Experiment 2 part a, 50 μg Dapsone/ml Middlebrook 7H11 medium) was “no growth” and the Observed growth (Experiment 2 part b, 3 μg Dapsone/ml Middlebrook 7H11 medium) was “confluent smooth colonies”. The Observed growth (Experiment 2 part b, 4 μg Dapsone/ml Middlebrook 7H11 medium) was “small smooth colonies”, the Observed growth (Experiment 2 part b, 5 μg Dapsone/ml Middlebrook 7H11 medium) was “small smooth colonies” and the Observed growth (Experiment 2 part c, 5 μg Dapsone/ml Middlebrook 7H11 medium) was “few rough colonies,; also recorded: mostly smooth colonies”. For the same molecule, the Observed growth (Experiment 2 part c, 7.5 μg Dapsone/ml Middlebrook 7H11 medium) was “few rough colonies,; also recorded: mostly smooth colonies”, the Observed growth (Experiment 2 part c, 10 μg Dapsone/ml Middlebrook 7H11 medium) was “mostly rough colonies” and the Observed growth (Experiment 2 part c, 12 μg Dapsone/ml Middlebrook 7H11 medium) was “mostly rough colonies”.
